Data published in patent publication US20040253189A1, “Breath Freshening and Oral Cleansing Product Using Geraniol” (priority 2002, published 2004).
Values after ≈ are worked out from the molar mass of the structure shown.

Experiments:
Type in all cases: cell-based
Porphyromonas gingivalis [1] = experiment: MIC (minimum inhibitory concentration) study, 96 well microtiter plates; settings: P. gingivalis, 48 hours at 37° C., turbidity at 660 nm
Procedure: (§1) In vitro tests were conducted with a gram positive supragingival plaque bacterium, Streptococcus mutans. In addition, two subgingival plaque bacteria associated with oral malodor were tested, Porphyromonas gingivalis and Fusobacterium nucleatum. The MIC (Minimum Inhibitory Concentrations) study protocol is as follows. Chlorhexidine was used as a positive control and sterile water was used as a negative control. Geraniol was suspended in 10% methanol with 3.8% Tween 80. […] 96 well microtiter plates were used for this study. Each well contained 5×10^5 colony forming units/ml of bacteria, serially diluted agents and bacterial growth medium. All bacterial cultures were incubated at 37° C. and stationary. Bacterial growth was estimated spectrophotometrically at 660 nm, after 48 hours. The MIC for each test bacteria was defined as the minimum concentration of test compound limiting turbidity to <absorbance at 660 nm.

Fusobacterium nucleatum [2] = experiment: as above; settings: F. nucleatum, 48 hours at 37° C., turbidity at 660 nm
Procedure: as §1

Porphyromonas gingivalis [3] = experiment: MBC (minimum bactericidal concentration) determination, plating on blood agar; settings: P. gingivalis, lowest concentration that killed at least 99.9% of initial inoculum
Procedure: as §1, with “[…]. The MBC (Minimum bactericidal concentrations) were determined using the 96 well microtiter plate serial dilutions as described above for MIC studies. Serial dilution of cultures in wells showing no visible growth were performed and 10 microliters of culture were plated in triplicate on blood agar plates. Viable colonies were scored after incubation of the plates for 48 hours at 37° C. For each test bacterium, the number of CFU/ml were determined in the initial inoculum. The MBC was defined as the lowest concentration of a test compound that killed at least 99.9% of the cells present in the initial inoculum.” for “nm.”

Fusobacterium nucleatum [4] = experiment: as above; settings: F. nucleatum, lowest concentration that killed at least 99.9% of initial inoculum
Procedure: as §1, with “[…]. The MBC (Minimum bactericidal concentrations) were determined using the 96 well microtiter plate serial dilutions as described above for MIC studies. Serial dilution of cultures in wells showing no visible growth were performed and 10 microliters of culture were plated in triplicate on blood agar plates. Viable colonies were scored after incubation of the plates for 48 hours at 37° C. For each test bacterium, the number of CFU/ml were determined in the initial inoculum. The MBC was defined as the lowest concentration of a test compound that killed at least 99.9% of the cells present in the initial inoculum.” for “nm.”

Streptococcus mutans [5] = experiment: MIC (minimum inhibitory concentration) study, 96 well microtiter plates; settings: S. mutans, 48 hours at 37° C., turbidity at 660 nm
Procedure: as §1

Streptococcus mutans [6] = experiment: MBC (minimum bactericidal concentration) determination, plating on blood agar; settings: S. mutans, lowest concentration that killed at least 99.9% of initial inoculum
Procedure: as §1, with “[…]. The MBC (Minimum bactericidal concentrations) were determined using the 96 well microtiter plate serial dilutions as described above for MIC studies. Serial dilution of cultures in wells showing no visible growth were performed and 10 microliters of culture were plated in triplicate on blood agar plates. Viable colonies were scored after incubation of the plates for 48 hours at 37° C. For each test bacterium, the number of CFU/ml were determined in the initial inoculum. The MBC was defined as the lowest concentration of a test compound that killed at least 99.9% of the cells present in the initial inoculum.” for “nm.”

| MIC (Porphyromonas gingivalis [1]) [µg/mL] | MIC (Fusobacterium nucleatum [2]) [µg/mL] | MIC (Streptococcus mutans [5]) [µg/mL] | Compound | MBC (Porphyromonas gingivalis [3]) [µg/mL] | MBC (Fusobacterium nucleatum [4]) [µg/mL] | MBC (Streptococcus mutans [6]) [µg/mL] |
| --- | --- | --- | --- | --- | --- | --- |
| 1.25 (≈ 2.47 µM) | 1.25 (≈ 2.47 µM) | – | [H]/N=C(\N/C(=N/[H])NCCCCCCNC(=N)NC(=N)Nc1ccc(Cl)cc1)Nc1ccc(Cl)cc1 [Cholorhexidine, Chlorhexidine, reference compound] | 1.25 (≈ 2.47 µM) | 1.25 (≈ 2.47 µM) | – |
| 125 (≈ 810 µM) | 125 (≈ 810 µM) | 500 (≈ 3240 µM) | CC(C)=CCC/C(C)=C/CO [geraniol] | 125 (≈ 810 µM) | 125 (≈ 810 µM) | 250 (≈ 1620 µM) |
